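Step 1: Grow cells in 96-well plates. Step 2: Expose to compound for 48 hours at 5 concentrations. Step 3: Interpolate endpoints linearly; if unreached, use highest concentration. GI50 is the concentration that inhibits growth by half.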 Active and inactive are the calls of the source. Rule as the data show it: active = GI50 up to about 1.1 µM and inactive = higher.
Experiments:
Experiment in all cases: growth of human tumour cells (NCI), 48 h
[1] = test system: 786-0
[2] = test system: A498
[3] = test system: A549
[4] = test system: ACHN
[5] = test system: BT-549
[6] = test system: CAKI-1
[7] = test system: CCRF-CEM
[8] = test system: COLO 205
[9] = test system: DU-145
[10] = test system: EKVX
[11] = test system: HCC 2998
[12] = test system: HCT-116
[13] = test system: HCT-15
[14] = test system: HL-60
[15] = test system: HOP-62
[16] = test system: HOP-92
[17] = test system: HT-29
[18] = test system: Hs-578T
[19] = test system: IGROV-1
[20] = test system: K562
[21] = test system: KM12
[22] = test system: LOX IMVI
[23] = test system: M14
[24] = test system: MDA-MB-231
[25] = test system: MDA-MB-435
[26] = test system: MOLT-4
[27] = test system: Malme-3M
[28] = test system: NCI-H226
[29] = test system: NCI-H23
[30] = test system: NCI-H460
[31] = test system: NCI-H522
[32] = test system: NCI/ADR-RES
[33] = test system: OVCAR-3
[34] = test system: OVCAR-4
[35] = test system: OVCAR-5
[36] = test system: OVCAR-8
[37] = test system: PC-3
[38] = test system: RPMI-8226
[39] = test system: RXF 393
[40] = test system: SF-268
[41] = test system: SF-295
[42] = test system: SK-MEL-28
[43] = test system: SK-MEL-2
[44] = test system: SK-MEL-5
[45] = test system: SK-OV-3
[46] = test system: SNB-19
[47] = test system: SNB-75
[48] = test system: SR
[49] = test system: SW-620
[50] = test system: T47D
[51] = test system: TK-10
[52] = test system: U-251
[53] = test system: UACC-257
[54] = test system: UACC-62
[55] = test system: UO-31
[56] = test system: MCF7
[57] = test system: SF-539
[58] = test system: SN12C

In the case of `CN1CCN(c2ccc3c(c2)NCC(=O)N3)CC1`, the GI50 [1] is reported as > 100 µM (inactive), the GI50 [2] is reported as > 100 µM (inactive) and the GI50 [3] is reported as > 100 µM (inactive). The GI50 [4] was > 100 µM (inactive), the GI50 [5] was > 100 µM (inactive) and the GI50 [6] was > 100 µM (inactive). The GI50 [7] was > 100 µM (inactive), the GI50 [8] was > 100 µM (inactive) and the GI50 [9] was > 100 µM (inactive). For the same compound, the GI50 [10] was 96.4 µM (inactive), the GI50 [11] was > 100 µM (inactive) and the GI50 [12] was > 100 µM (inactive). For the same compound, the GI50 [13] was over 100 µM, the GI50 [14] was > 100 µM (inactive) and the GI50 [15] was > 100 µM (inactive). The GI50 [16] was > 100 µM (inactive), the GI50 [17] was > 100 µM (inactive) and the GI50 [18] was > 100 µM (inactive). The GI50 [19] was > 100 µM (inactive), the GI50 [20] was > 100 µM (inactive) and the GI50 [21] was > 100 µM (inactive). The GI50 [22] was > 100 µM (inactive), the GI50 [23] was > 100 µM (inactive) and the GI50 [24] was > 100 µM (inactive). The GI50 [25] was > 100 µM (inactive), the GI50 [26] was > 100 µM (inactive) and the GI50 [27] was > 100 µM (inactive). The GI50 [28] was > 100 µM (inactive), the GI50 [29] was > 100 µM (inactive) and the GI50 [30] was > 100 µM (inactive). For the same compound, the GI50 [31] was > 100 µM (inactive), the GI50 [32] was > 100 µM (inactive) and the GI50 [33] was > 100 µM (inactive). The GI50 [34] was > 100 µM (inactive), the GI50 [35] was > 100 µM (inactive) and the GI50 [36] was > 100 µM (inactive). The GI50 [37] was > 100 µM (inactive), the GI50 [38] was > 100 µM (inactive) and the GI50 [39] was > 100 µM (inactive). The GI50 [40] was > 100 µM (inactive), the GI50 [41] was > 100 µM (inactive) and the GI50 [42] was > 100 µM (inactive). The GI50 [43] was > 100 µM (inactive), the GI50 [44] was > 100 µM (inactive) and the GI50 [45] was > 100 µM (inactive). The GI50 [46] was > 100 µM (inactive), the GI50 [47] was > 100 µM (inactive) and the GI50 [48] was > 100 µM (inactive). For the same compound, the GI50 [49] was > 100 µM (inactive), the GI50 [50] was > 100 µM (inactive) and the GI50 [51] was > 100 µM (inactive). For the same compound, the GI50 [52] was > 100 µM (inactive), the GI50 [53] was > 100 µM (inactive) and the GI50 [54] was > 100 µM (inactive). The GI50 [55] was > 100 µM (inactive).
In the case of `C=C1C[C@H](O)[C@H]2C(C[Se]c3ccccc3)C(=O)O[C@@H]2[C@H]2[C@H](C)C(O)C[C@@H]12` (stereo not given in full), the GI50 [1] is reported as 33 µM (inactive), the GI50 [3] is reported as 44.2 µM (inactive) and the GI50 [4] is reported as 27.9 µM (inactive). The GI50 [5] was 28.8 µM (inactive), the GI50 [6] was 71.6 µM (inactive) and the GI50 [7] was 24.8 µM (inactive). For the same compound, the GI50 [8] was 50.7 µM (inactive), the GI50 [9] was 44.2 µM (inactive) and the GI50 [10] was 33.7 µM (inactive). The GI50 [12] was 23.1 µM (inactive), the GI50 [13] was 13.8 µM and the GI50 [15] was > 100 µM (inactive). The GI50 [16] was 29.3 µM (inactive), the GI50 [17] was 46.1 µM (inactive) and the GI50 [18] was 32.8 µM (inactive). For the same compound, the GI50 [19] was 25.3 µM (inactive), the GI50 [20] was 36.6 µM (inactive) and the GI50 [21] was 40 µM (inactive). For the same compound, the GI50 [22] was 21.2 µM (inactive), the GI50 [23] was 31.5 µM (inactive) and the GI50 [56] was > 100 µM (inactive). For the same compound, the GI50 [24] was 14.8 µM (inactive), the GI50 [25] was 80.2 µM (inactive) and the GI50 [26] was 31.6 µM (inactive). For the same compound, the GI50 [27] was 40.6 µM (inactive), the GI50 [28] was 23.1 µM (inactive) and the GI50 [29] was 15.7 µM (inactive). For the same compound, the GI50 [30] was 34 µM (inactive), the GI50 [31] was 17.5 µM (inactive) and the GI50 [32] was 20.2 µM (inactive). The GI50 [33] was 24.4 µM (inactive), the GI50 [34] was 38.1 µM (inactive) and the GI50 [35] was 20.6 µM (inactive). The GI50 [36] was 41.8 µM (inactive), the GI50 [37] was 22.7 µM (inactive) and the GI50 [38] was 23.9 µM (inactive). The GI50 [39] was 13.1 µM (inactive), the GI50 [40] was 67.6 µM (inactive) and the GI50 [41] was 75.9 µM (inactive). The GI50 [57] was 55.3 µM (inactive), the GI50 [42] was 76.2 µM (inactive) and the GI50 [43] was 66.2 µM (inactive). For the same compound, the GI50 [44] was 33.6 µM (inactive), the GI50 [45] was > 100 µM (inactive) and the GI50 [58] was 21.8 µM (inactive). For the same compound, the GI50 [46] was > 100 µM (inactive), the GI50 [47] was 31.8 µM (inactive) and the GI50 [48] was 23.4 µM (inactive). The GI50 [49] was 27.5 µM (inactive), the GI50 [50] was 28.3 µM (inactive) and the GI50 [51] was 56.9 µM (inactive). The GI50 [52] was 16.4 µM (inactive), the GI50 [53] was 37.9 µM (inactive) and the GI50 [54] was 19.1 µM (inactive). For the same compound, the GI50 [55] was 22.8 µM (inactive).
